{
  "source": "paper PMC12442448",
  "about": "“A third type of PETase from the marine Halopseudomonas lineage” (Protein Science : A Publication of the Protein Society, 2025)",
  "molecular_target": "T1, HaloPETase1 (Halopseudomonas pachastrellae, UniProt A0A1S8DDV9)",
  "T1 construct": "gene BXT89_15940; N-terminal signal peptide removed; N-10xHis-SUMO tag cut with SenP2 (tag kept in agar-plate screen); extra N-terminal Ser and C-terminal Ala from FX cloning; E. coli Shuffle T7",
  "T1 sequence (A0A1S8DDV9 24-289)": "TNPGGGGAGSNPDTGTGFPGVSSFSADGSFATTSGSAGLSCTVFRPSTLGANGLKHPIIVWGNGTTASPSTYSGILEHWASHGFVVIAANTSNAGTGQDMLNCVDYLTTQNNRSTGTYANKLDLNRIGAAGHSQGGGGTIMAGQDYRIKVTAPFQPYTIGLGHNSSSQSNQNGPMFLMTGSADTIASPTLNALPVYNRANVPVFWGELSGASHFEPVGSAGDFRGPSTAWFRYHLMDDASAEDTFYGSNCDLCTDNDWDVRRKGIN",
  "test": "absorbance at […] nm, initial rate (residual activity assay)",
  "type": "biochemical",
  "conditions": "1 mM substrate, 20 mM NaPi, pH 7.4, 150 mM NaCl, 1% DMSO; tag removed",
  "data": [
    {"smiles": "CCCC(=O)Oc1ccc([N+](=O)[O-])cc1", "note": "[para‐nitrophenyl butyrate]", "values": [
      {"measurement": "absorbance at 405 nm, initial rate (residual activity assay)", "result": "the residual activity was measured by a para‐nitrophenyl butyrate (pNPB) assay"}
    ]}
  ]
}
